Source: patent US20220347182A1, “METHODS AND COMPOSITIONS FOR THE TREATMENT OF OSTEOARTHRITIS” (The Board of Trustees of the Leland Stanford Junior …, priority 2019, published 2022)
Entries after “also recorded” stand apart in the source; their conditions may differ.

Tests used:
OA chondrocytes [1] = test: Human 62-plex Luminex array of secretome after drug treatment; type: cell-based; details: for CCL2 secretion / CCL7 secretion: 48 hours vs DMSO/control, 50 μM JNK Inhibitor II, 25 μM BMS-345541, 50 μM SB 431542, 0.5 mM IBMX, combination compared to JNK inhibitor alone
Description: Next, experiments were conducted to explore the functional effects of inhibiting these newly identified Inf-A cells in OA cartilage by capitalizing on their distinct signalling through JNK. Chondrocytes derived from 6 patients were cultured for 48-hours in the presence of JNK II inhibitor and the secretome was analyzed via 62 antibody human Luminex panels. Across all six patients, a variety of cytokines were altered, many trending toward significance. […] CCL2 and 7 are well-established chemoattractants for monocytes and are known to be altered during OA progression (see for example Ref 28). Genetic deletions of CCL2 and its receptor CCR2 prevent the development of surgical OA, further underscoring the importance of CCL2 as a key modulator in pathology (see for example Ref. 28). […] As a complementary approach, SMAD1/5, the other exclusive signaling pathway of the Inf-A cells was inhibited using an ALK inhibitor. ALK receptors are the most common upstream target of SMAD1/5 signaling in OA (See for example Ref. 31).
(§1) OA cells were seeded at high density in 12-well plates and treated with control (DMSO) or drug next day for 48 hours. Drug doses were determined based on prior literature and validation-: 0.5 mM 3-Isobutyl-1-methylxanthine (IBMX, Sigma 15879) (See for example Ref. 33), 50 μM JNK Inhibitor II (Calbiochem 420119), 25 μM NFK-B inhibitor BMS-345541 (Sigma B9935) (See for example Ref 30, 43), 50 μM Alk inhibitor, SB 431542 hydrate (Sigma S4317 (See for example Ref. 44, 45) and 25 uM Kartogenin (Sigma SML0370) (See for example Ref. 24-26) were used with appropriate dilution in DMSO.
Cell culture supernatants were collected and spun down at 10,000×g for 10 min at 4° C. to remove any cells or cell debris and then snap frozen in liquid nitrogen, before performing the assay. This assay was performed in the Human Immune Monitoring Center at Stanford University. Human 62-plex kits were purchased from eBiosciences/Affymetrix and used according to the manufacturer's recommendations with modifications as described below. Briefly, beads were added to a 96-well plate and washed in a Biotek ELx405 washer. Undiluted samples were added to the plate containing the mixed antibody-linked beads and incubated at room temperature for 1 hour followed by overnight incubation at 4° C. with shaking. Cold and room temperature incubation steps were performed on an orbital shaker at 500-600 rpm. Following the overnight incubation plates were washed in a Biotek ELx405 washer and then biotinylated detection antibody added for 75 minutes at room temperature with shaking. Plate was washed as above and streptavidin-PE was added. After incubation for 30 minutes at room temperature wash was performed as above and reading buffer was added to the wells. Each sample was measured in duplicate. Plates were read using a Luminex 200 instrument with a lower bound of 50 beads per sample per cytokine. Custom assay Control beads by Radix Biosolutions were added to all wells.

OA chondrocytes [2] = test: RT-qPCR gene expression after drug treatment; type: cell-based, human; details: 48 hours; for MMP13 expression: OA patients n=3
Description: Cells for RNA extraction were collected in RNA lysis buffer (Zymo Research) and processed according to the manufacturer's specifications for the Quick-RNA MicroPrep Kit (Zymo Research, R1051), including the optional DNAse1 digestion. RNA quality and quantity was measured using the Nanodrop 1000 Spectrophotometer. All samples had A260/280 scores between 1.6-1.8.
[…] of RNA from each sample was reversed transcribed into cDNA using the High Capacity cDNA Reverse Transcription Kit (Applied Biosystems, 4368813). Quantitative PCR was performed using TaqMan gene-specific expression assays, FAM-labeled, for metalloproteinase 3, 9, a 13 (Hs00233962_m1, Hs00957562_m1, Hs00233992_m1), with a universal mastermix (Applied Biosystems, 4369016). Gene expression levels were normalized with FAM-labeled Actin-beta (Hs01060665_g1).
For Tfam, CD24 and PGC1a, we utilized the SybrGreen mastermix (Applied Biosystems, A25742) according to manufacturer's specifications. Primer sequences: Tfam_F: 5′-GCTCAGAACCCAGATGCA AAA-3′, Tfam_R 5′-AGGAAGTTCCCTCCAACGC-3′, PGCla_F: 5′-[…]-3′, PGC1a_R: 5′-[…]-3′, CD24_F: 5′-TACCCACGCAGATTTATT-3′, CD24_R: 5′-AGA GTGAGACCACGAAGA-3′, Actin_F 5′-CACCAACTGGGACGACAT-3′, Actin_R: 5′-ACAGCCTGGATAGCAACG-3′. qPCR reactions included a 2-minute incubation at 50° C. to inactivate previous amplicons with uracil-DNA glycosylase, followed by a 10-minute incubation at 95° C. to activate the Taq polymerase. The amplification cycle, consisting of 15 seconds at 95° C., and 1 minute at 60° C., was repeated 40 times. The relative expression levels were determined using the ΔCt method (CT gene of interest−CT internal control−Actin) and relative gene expression is calculated using 2−ΔCt method and plotted.
as §1

[3] = test system: post-traumatic osteoarthritis (PTOA); test: Mouse model of post-traumatic osteoarthritis (tibial loading), OARSI histological scoring; type: in vivo, wildtype C57BL mice; details: 50 uM, 8 weeks post-injury vs control; for OA progression: intra-articular, 2 injections every week starting 1 week after tibial loading
Description: Using a mouse model of post-traumatic osteoarthritis (PTOA) wherein mechanical loading can lead to onset and progression of OA (Christiansen et al. 2012), Applicant tested if early intervention with small molecule modulators of the Inf A populations can modulate the onset or progression of OA in vivo. For these experiments, wildtype C57BL mice were injected with (a) control or (b) Inf-A inhibitor (JNK II inhibitor) OA initiation to test whether these putative modulations can be therapeutic in OA. The injections were given starting 1 week after tibial loading and at a frequency of 2 injections every week to ensure their efficacy. For histological assessment, the OARSI scoring criteria was utilized to grade the OA severity with the score of 0-6 grades ranging from intact cartilage to erosion and deformation of cartilage/bone. For the quantification of OA development in each control or injured joint, 6 sagittal sections (4 μm thickness) spaced 50 μm are typically cut and stained in order to cover the whole joint compartment. A maximum score for the overall section (both tibial plateau and femoral condyle) is obtained after assigning the most severe damage score for each section and averaging the scores; a summit score (sum of the calculated scores) is calculated as a measure of the prevalent damage over the whole joint.

OA chondrocytes [4] = test: cyTOF profiling of CPC cluster abundance after kartogenin treatment; type: cell-based, human; details: 25 uM kartogenin vs DMSO, 48 hours
Excerpt: Experiments were undertaken to understand how the application of a pro-regenerative drug would affect this CPC landscape, specifically the pro-inflammatory CPCs four in Group C. Kartogenin (KGN) was originally identified in a screen to expand mesenchymal stem cells and has since been shown in multiple studies to be a pro-chondrogenic modulator of OA progression in animal models (See for example Ref. […]). One patient from Group C (OA15) and one patient from Group A (OA5) were utilized. One patient from Group A (OA5) and one patient from Group C (OA15) were treated with kartogenin or control (DMSO) for 48 hours, fixed, stained and profiled by cyTOF as previously described. […] The treatment additionally expanded low-inflammation clusters 7 and 11 in the Group A patient, where they already appeared overrepresented, while these clusters were not expanded in the Group C patient. Furthermore, kartogenin reduced pro-inflammtory clusters 9, 12 in both the patients, though to a greater degree in the Group C patient enriched in those subtypes (FIG. 3G). Overall, kartogenin appears to expand normal-like and low inflammation CPC clusters (2, 10, 7 and 11) while reducing the high inflammation CPC III clusters (12 and 16).
as §1
OA cells were cultured to confluence in 10 cm dishes. On the collection day, cells were stained with 25 μM Idu for 15 min at 37° C. in the cell incubator, then with 0.5 μM cisplatin for 5 min at RT. Cells were then lifted with 0.25% Trypsin-EDTA (Gibco) for 15 min at 37° C. Trypsin was quenched using media containing 10% FBS and cell were washed 3 times with PBS to remove any trace amounts of trypsin. Cells were fixed after straining through a […] strainer in 1.6% PFA for 10 min at RT. Cells were washed 4 times with cells staining media, counted and frozen in 1 million cell aliquots in a small amount of cell staining media at −80° C. To stain, cells were thawed on ice and barcoded using the Cell-ID 20-plex Pd Barcoding Kit (Fluidigm) according to the manufacturer's specifications. After barcoding, cells were labeled as previously described (See for example Ref 13). Briefly, all barcoded samples were combined into one FACs tube, and washed 3× with cell staining media and stained with the cell surface antibodies for 30 minutes at RT according to the concentrations in Table 2. Cells were then was 2× with cell staining media and permeabilized with 1 mL of cold methanol added dropwise with continuous gentle vortexing. Cells were incubated for 10 min on ice, with gentle vortexing every 2-3 minutes to avoid cell clumping, then washed in cell staining media and stained with the intracellular antibodies for 30 minutes at RT. After 2× washed with cell staining media, cells were resuspended in 1.6% PFA with Cell-ID Intercalator-Ir (Fluidigm) used at 1:2000. Cells were measured using the cyTOF 2 (Fluidigm) and injected using the supersampler. […]

[5] = 48 hours vs DMSO, 50 μM SB 431542, combination compared to JNK inhibition alone

NC(=O)c1ccc(-c2nc(-c3ccc4c(c3)OCO4)c(-c3ccccn3)[nH]2)cc1 [ALK inhibitor, SB 431542 hydrate]
CCL2 secretion (OA chondrocytes [1]): decrease | CCL7 secretion (OA chondrocytes [1]): decrease | CXCL1 secretion (OA chondrocytes [1]; [5]): decrease | CXCL5 secretion (OA chondrocytes [1]; [5]): decrease

Cc1ccc2nc(NCCN)c3ncc(C)n3c2c1 [BMS-345541]
CCL2 secretion (OA chondrocytes [1]): did not affect | CCL7 secretion (OA chondrocytes [1]): did not affect

CC(C)Cn1c(=O)n(C)c(=O)c2[nH]cnc21 [IBMX, 3-Isobutyl-1-methylxanthine]
upregulation of CD24 expression (OA chondrocytes [2]; 0.5 mM IBMX): 2-4 fold | MMP13 expression (OA chondrocytes [2]): no consistent effect; also recorded: No significant differences | Pgc1a gene expression (OA chondrocytes [2]; IBMX): increased | Tfam gene expression (OA chondrocytes [2]; IBMX): increased | CCL2 secretion (OA chondrocytes [1]): modest downregulation | CCL7 secretion (OA chondrocytes [1]): modest downregulation

O=C1c2ccccc2-c2n[nH]c3cccc1c23 [JNK II inhibitor]
MMP gene expression (OA chondrocytes [2]): remained unaffected | MMP13 expression (OA chondrocytes [2]): No significant differences | max score (OARSI) [3]: reduced | summit score (OARSI) [3]: reduced | OA progression [3]: slowed | OA progression ([3]; listed as JNKII inhibitor): slows down progression | CCL2 secretion (OA chondrocytes [1]): significant decrease | CCL7 secretion (OA chondrocytes [1]): significant decrease | CCL2 secretion (OA chondrocytes [1]; listed as INK inhibitor): overall reduction | CCL7 secretion (OA chondrocytes [1]; listed as INK inhibitor): overall reduction

O=C(O)c1ccccc1C(=O)Nc1ccc(-c2ccccc2)cc1 [Kartogenin]
abundance of low-inflammation clusters 7 and 11 (OA chondrocytes [4]; Group A patient (OA5)): expanded | abundance of low-inflammation clusters 7 and 11 (OA chondrocytes [4]; Group C patient (OA15)): not expanded | abundance of pro-inflammatory clusters 9, 12 (OA chondrocytes [4]; both patients): reduced | abundance of cluster 2 (CPC I) and cluster 10 (CPC II) (OA chondrocytes [4]; both patients (OA5 Group A, OA15 Group C)): selectively expanded | abundance of high inflammation CPC III clusters (12 and 16) (OA chondrocytes [4]; overall summary): reducing
